{"source": "patent US20120141597A1", "about": "(priority 2009, published 2012)", "tested_on": "Leptosphaeria nodorum (LEPTNO)", "assay": "In vitro fungitoxicity (growth inhibition) in copper-minus and copper-plus liquid medium", "format": "cell-based", "details": "CuCl2 10 μM, no test compound, copper-plus vs copper-minus medium, across experiments", "description": "In vitro fungitoxicity assays against Leptosphaeria nodorum (LEPTNO) were conducted using the liquid growth medium described by Coursen and Sisler (American Journal of Botany 1960, 47, 541-549) except that copper micronutrient, normally included as CuSO4, was omitted. The medium, termed “copper-minus”, was prepared by dissolving 10 g glucose, 1.5 g K2HPO4, 2 g KH2PO4 and 1 g (NH4)2SO4 in 1 liter of deionized water and treating the solution with 0.5 g Chelex 100 resin (Bio-Rad Analytical grade, 50-100 mesh, sodium form, cat#142-2822) by stirring at room temperature for 1 h. MgSO4.7H2O (0.5 g) was added, and stirring was continued for a further hour. Trace elements (minus CuSO4), and vitamins described by Coursen and Sisler were added from concentrated stock solutions and the entire medium was sterilized by filtration. […]\nLEPTNO was grown on potato dextrose agar in 9 cm diameter petri dishes for 7 days. […] The spores were resuspended in copper-minus medium, and the suspension adjusted to 2×10^5 spores per mL Microtiter plates were inoculated with 100 μL of this spore suspension and the plates incubated at 25° C. for 72 h before assessing fungal growth by measuring light scattering in a NepheloStar plate reader. Growth inhibition was determined by comparing growth in the presence of test compound with growth in control wells lacking test compound. […]", "data": [{"compound": "O.O.[Cl][Cu][Cl]", "note": "[CuCl2, CuCl2.2H2O]", "values": [{"measurement": "LEPTNO % Inhn. attributed to copper chloride alone", "value": "7.1 ± 6.0", "unit": "%"}]}]}
